As usually defined, the Cmax is the maximum level reached in the sampled fluid or tissue.

This is an account of results in PMC12474259, “ITF6475, a New Histone Deacetylase 6 Inhibitor, Prevents Painful Neuropathy Induced by Paclitaxel” (Toxics, 2025).

Data set [1] relates to C57BL/6 female mice. As to the kind of experiment: Neuropathology, morphological analysis of caudal nerves. It counts as in vivo, mouse. As to conditions: end of treatment, PTX alone or in combination. Here is the method:
Caudal nerves were isolated for morphological analysis and processed as previously described, separating the proximal and the distal portions to obtain a better evaluation of the distal-to-proximal extension of the damage. Briefly, the caudal and sciatic nerves were immersion-fixed in 3% glutaraldehyde and were subsequently osmicated, dehydrated, and embedded in epoxy resin. Semithin sections of 1.5 μm thickness were prepared from at least three tissue blocks for each animal, stained with toluidine blue, and examined with a Nexcope Ne920 AUTO light microscope (TiEsseLab Srl, Milano, Italy).

In data set [2] the test system is neurofilament light (NfL). As to the kind of experiment: Serum neurofilament light (NfL) analysis in PIPN model. The note with it: end of treatment. It counts as in vivo, mouse. The procedure:
(§1) At baseline and at the end of treatment, neurophysiological evaluations and dynamic tests were performed (Figure 1). Baseline neurophysiological results were used to randomize the animals into the 6 groups to ensure homogeneity. At the end of treatment, the animals were sacrificed by isoflurane overdose, caudal nerves, liver, spleen, thymus, kidneys, and sternum were used for histopathological analysis, and skin biopsies for intraepidermal nerve fiber (IENF) density analysis were collected. At the end of the study, blood was collected from the tail vein under isoflurane anesthesia into 1.5 mL Eppendorf tubes, centrifuged at 3500× g for 10 min at 4 °C, and then serum was transferred into a new tube and stored at –80 °C until examined for neurofilament light (NfL) level analysis.
Serum NfL concentrations were measured using an automated chemiluminescent enzyme immunoassay instrument LUMIPULSE G600 (LUMIPULSE G NfL Blood kit, Fujirebio, Pomezia, Italy). The concentration was expressed in pg/mL [27, 30, 31].

For data set [3], the system named is C57BL/6 female mice. As to the kind of experiment: General toxicity: mortality, health, body weight, histopathology. The format is in vivo. As to conditions: for mortality: ITF6475 all doses p.o. daily. Here is the method: In the days of co-treatment, ricolinostat and all doses of ITF were administered 4 h before PTX. The animals were housed in a certified and limited-access facility with controlled temperature (22 °C ± 2) and humidity (50% ± 20) and an artificial 12 h:12 h light cycle from 7 a.m. to 7 p.m. Mice were monitored daily to evaluate the mortality and their health, and body weight was measured twice a week during the treatment period in order to monitor general conditions and to adjust the dose.
as §1
Liver, spleen, thymus, kidneys, and sternum were collected and fixed in 10% buffered formalin at room temperature for 4 days. After fixation, the sternum was decalcified for 48 h at room temperature in 10% buffered EDTA. After trimming, these samples were paraffin-embedded, cut into 3 µm thick sections, stained with hematoxylin–eosin, and examined with an Olympus BX51 light microscope (Olympus, Segrate, Italy).

Data set [4] concerns C57BL/6 female mice. The format is in vivo. As to conditions: PTX + ricolinostat 50 mg/kg p.o. daily. Here is the method:
(§2) C57BL/6 female mice (Inotiv, Udine, Italy) were used and randomized into six different groups (19 mice/group): one group was treated with PTX vehicle i.v., 1 time/week for 4 weeks and methocel 0.5% os, daily (VEH group); a second group was treated with PTX, i.v., 70 mg/kg 1 time/week for 4 weeks (PTX group); and the other four groups were treated with PTX, i.v., 70 mg/kg 1 time/week for 4 weeks and co-treated with ricolinostat, p.o., 50 mg/kg daily (PTX + ACY group), or with ITF6475, p.o., 1–6–12.5 mg/kg daily, p.o., (PTX + ITF1, PTX + ITF6, PTX + ITF12.5 groups), respectively (Figure 1). In the days of co-treatment, ricolinostat and all doses of ITF were administered 4 h before PTX. […] Mice were monitored daily to evaluate the mortality and their health, and body weight was measured twice a week during the treatment period in order to monitor general conditions and to adjust the dose.
The onset of PIPN was assessed by evaluating the sensory nerve conduction velocity (NCV) and nerve action potential amplitude (SNAP) of caudal and digital nerves using the electromyography apparatus (Matrix Light, Micromed, Treviso, Italy). […] Latencies were measured from stimulus onset, and peak-to-peak amplitudes were calculated. The NCV was calculated considering the measured distance between the recording and the stimulating negative electrode divided by the latency. […]

The nature of data set [5]: Pharmacokinetic assessment in mouse plasma (LC-MS/MS). It counts as in vivo. The note with it: for Cmax / AUC(0-t): oral; for AUC(0-t): read-out: AUC0–8h. Here is the method:
For the determination of ITF6475 in mouse plasma (n. 3 mice/group), aliquots of 20 µL of samples were deproteinized by adding 300 µL of acetonitrile. After centrifugation, 100 µL of the supernatant was collected from each sample and allowed to dry in a nitrogen flow at 35 °C. The residue was then reconstituted in 150 µL of the mixture in 90% water/10% acetonitrile and 0.1% formic acid.
Quantification of ITF6475 in the samples was carried out on a calibration curve in the range 1–1000 ng/mL. Quantification of Ricolinostat in mouse plasma was carried out on aliquots of 20 µL and deproteinized with 200 µL of acetonitrile. Aliquots of 100 µL of the supernatant were collected and diluted with 100 µL of the mixture in 90% water/10% acetonitrile and 0.1% formic acid. The calibration curve range was 1–1000 ng/mL.
Samples were analyzed in an LC-MS/MS system, constituted by a Prominence Shimadzu HPLC (Shimadzu Italia S.r.l., Milano, Italy) and an API6500+ triple quadrupole mass spectrometer equipped with TurboIonSpray (Sciex, Milano, Italy). Analyses were carried out in a positive mode. The system was managed through the software Analyst 1.7.2 (Sciex, Milano, Italy).

The subject of data set [6] is C57BL/6 female mice. The format is in vivo. The note with it: end of treatment, PTX + ACY 50 mg/kg p.o. daily, p < 0.01. The procedure: as §2
To evaluate the IENF density, glabrous skin punches from the plantar hind paw were fixed in paraformaldehyde-lysine and periodate sodium (PLP) 2%, cryoprotected and serially cut in 20 μm thick sections. […] The total number of PGP 9.5-positive IENF crossing the dermal-epidermal junction was counted by a blinded examiner (ACh) under a light microscope at 40× magnification (Nexcope Ne920 AUTO light microscope, TiEsseLab Srl, Milano, Italy). […]

The conditions of data set [7]: general statement on hydroxamic acids, no reference given; cited from earlier work.
Setting [8] is: 4 weeks, PTX 70 mg/kg i.v. 1 time/week, ricolinostat 50 mg/kg p.o. daily.

Read-outs that look alike come from different tables or passages of the source.

As to `CC(=O)O[C@H]1C(=O)[C@@]2(C)[C@H]([C@H](OC(=O)c3ccccc3)[C@]3(O)C[C@H](OC(=O)[C@H](O)[C@@H](NC(=O)c4ccccc4)c4ccccc4)C(C)=C1C3(C)C)[C@]1(OC(C)=O)CO[C@@H]1C[C@@H]2O` [PTX, paclitaxel], in the data set on C57BL/6 female mice [1], the “morphology of distal caudal nerves” value is given as “even more severe axonopathy” and the “morphology of proximal caudal nerves” value is “severe axonopathy with numerous degenerated fibers”. Also, the “serum NfL vs. VEH” value in data set [2] (PTX 70 mg/kg i.v. alone, p < 0.001) is on record as “statistically significant difference”. Also, the mortality entry in the data set on C57BL/6 female mice [3] (setting [8]) is recorded as “no mortality was observed”. The “mice with mild, diffuse hepatic lipidosis” value with C57BL/6 female mice [3] (female, C57BL/6, mouse, in vivo, 4 weeks) is given as “approximately 25%”.
In the case of `O=C(CCCCCCNC(=O)c1cnc(N(c2ccccc2)c2ccccc2)nc1)NO` [ricolinostat], in the data set on C57BL/6 female mice [4], the “protection of PTX-induced reduction in digital nerve SNAP” value is on record as “significant protection of reduction in digital nerve SNAP”. The “AUC increase with dosage” value in data set [5] is recorded as “increase non-linearly at doses above 25 mg/kg”. For the same compound, the Cmax in data set [5] (25 mg/kg, dose 25 mpk) worked out at 33.7 ng/mL; in data set [5] (100 mg/kg, dose 100 mpk), 29.8 ng/mL; in data set [5] (200 mg/kg, dose 200 mpk), 33.9 ng/mL. The AUC(0-t) in data set [5] (25 mg/kg, dose 25 mpk) is 124 ng·h/mL; in data set [5] (100 mg/kg, dose 100 mpk) it was 171 ng·h/mL; in data set [5] (200 mg/kg, dose 200 mpk), 234 ng·h/mL. In addition, the “IENF density vs. VEH” value in the data set on C57BL/6 female mice [6] was “statistically significant reduction”. Besides, the “serum NfL vs. VEH” value in data set [2] (PTX + ACY 50 mg/kg p.o. daily, p < 0.05) is on record as “statistically significant difference”. The tolerability entry in the data set with C57BL/6 female mice [3] (4 weeks, PTX 70 mg/kg i.v. 1 time/week, ricolinostat 50 mg/kg p.o. daily, ITF6475 1–6–12.5 mg/kg p.o. daily (all doses)) is given as “well tolerated”. For the same compound, the mortality result in the data set on C57BL/6 female mice [3] (setting [8]) is “no mortality was observed”. Further, the “body weight vs. VEH” value in the data set on C57BL/6 female mice [3] (PTX alone or in combination with ricolinostat 50 mg/kg or all doses of ITF) was “statistically significant increase in body weight”. The relevant toxicity result in the data set on C57BL/6 female mice [3] (co-treated mice, ricolinostat 50 mg/kg or ITF6475 1–12.5 mg/kg p.o. daily with PTX) is “no evidence of relevant toxicity”. The “histopathology of thymus and spleen” value in the data set with C57BL/6 female mice [3] (end of treatment, PTX alone or in combination with ricolinostat or ITF6475) was “thymic and splenic hypoplasia associated with reactive extramedullary ectopic hematopoiesis”. Moreover, the “protein binding (in words)” value in data set [7] is listed as “not heavily protein-bound”.
